This passage reports IC50 and Activity results from ChEMBL document CHEMBL1155604, “New norditerpenoid alkaloids from Aconitum falconeri” (J Nat Prod, 2000).

pIC50: −log10 of the molar value. The source made the active and inactive calls. The calls are words filed in the database; no cut-off is given here.

The pIC50 is −log10 of the IC50, conventionally taken in molar units. The low end stands for a high IC50, the high end for a low IC50.

The nature of assay [1]: (§1) Inhibition of electric eel acetylcholinesterase type VI-S after 30 mins by modified Ellman's assay. Details: species or system Electrophorus electricus. On the technique in general: Ellman's reagent forms a yellow product with free thiols.
For another assay, the system named is Electrophorus electricus. The assay is described as §1.

The compound `CCN1C[C@]2(COC)[C@H](O)C[C@H](OC)[C@]34C1[C@H]([C@H](OC)[C@H]23)[C@@]1(OC(C)=O)C[C@H](OC)[C@@]2(O)C[C@@H]4[C@@H]1[C@H]2OC(=O)c1ccc(OC)c(OC)c1` [PSEUDACONITINE] showed a pIC50 in assay [1] of 3.56. Consider `CCO[C@]12C[C@H](OC)[C@@]3(O)C[C@H]([C@@H]1[C@H]3OC(=O)c1ccc(OC)c(OC)c1)[C@@]13C4[C@@H]2[C@H](OC)[C@@H]1[C@](COC)(CN4CC)[C@H](O)C[C@@H]3OC`, for which the outcome with Electrophorus electricus was inactive.

For the compound `COC[C@]12CN(C=O)C3[C@@H]4[C@H](OC)[C@H]1[C@@]3([C@@H](OC)C[C@H]2O)[C@@H]1C[C@]2(O)[C@@H](OC)C[C@@]4(OC(C)=O)[C@H]1[C@H]2OC(=O)c1ccc(OC)c(OC)c1` [FALEOCONITINE], in assay [1], the negative logarithm of the IC50 (pIC50) is 3.53.
